Data as given in US9199988B2, “Dihydroquinazolinone analogues” (Boehringer Ingelheim International GmbH, priority 2013, dated 2015).

Target: T1, first (BRD4-BD1) or the second (BRD4-BD2) bromodomain of BRD4 (Homo sapiens, UniProt O60885)
T1 construct: fused on or other part: GST tag (N-terminal fusion, used for capture on the glutathione acceptor beads)
Test: BRD4-H4 tetraacetylated peptide inhibition AlphaScreen
Format: binding
Settings: inhibition of interaction of GST-BRD4 bromodomain with biotinylated tetraacetylated histone H4 peptide; table does not say whether BD1 or BD2
Protocol: BRD4-H4 tetraacetylated peptide inhibition AlphaScreen
Compounds are diluted in serial dilution 1:5 in assay buffer from 10 mM stock in DMSO (100 μM start concentration) in white OptiPlate-384 (PerkinElmer). A mix consisting of 15 nM GST-BRD4-BD1 protein (aa 44-168) or 150 nM GST-BRD4-BD2 (aa 333-460) and 15 nM biotinylated Acetyl-Histone H4 (LysS, 8, 12, 16) peptide is prepared in assay buffer (50 mM HEPES pH=7.4; 25 mM NaCl; 0.05% Tween 20; 0.1% bovine serum albumin (BSA); 10 mM dithiothreitol (DTT)). 6 μl of the mix is added to the compound dilutions. Subsequently, 6 μl of premixed AlphaLISA Glutathione Acceptor Beads and AlphaScreen Streptavidin Donor Beads from PerkinElmer (in assay buffer at a concentration of 10 μg/ml each) are added and the samples are incubated for 30 min at RT in the dark (shaking 300 rpm). Afterwards, the signal is measured in a PerkinElmer Envision HTS Multilabel Reader using the AlphaScreen protocol from PerkinElmer. Each plate contains negative controls where biotinylated Acetyl-Histone H4 peptide and GST-BRD4-BD1 or GST-BRD4-BD2 are left out and replaced by assay buffer. Negative control values are entered as low basis value when using the software GraphPad Prism for calculations. Furthermore, a positive control (probe molecule JQ1+ with protein/peptide mix) is pipetted. Determination of IC50 values are carried out using GraphPad Prism 3.03 software (or updates thereof).

| SMILES | IC50 [nM] |
| --- | --- |
| Cc1noc(C)c1-c1ccc2c(c1)C(c1ccccc1)N(C)C(=O)N2 (stereo not shown) [Example 1, 6-(3,5-Dimethyl-isoxazol-4-yl)-3-methyl-4-phenyl-3,4-dihydro-1H-quinazolin-2-one] | 44 |
| Cc1noc(C)c1-c1ccc2c(c1)[C@H](c1ccccc1)N(C)C(=O)N2 [Example 2, (S) 6-(3,5-Dimethyl-isoxazol-4-yl)-3-methyl-4-phenyl-3,4-dihydro-1H-quinazolin-2-one] | 27 |
| Cc1noc(C)c1-c1ccc2c(c1)C(c1ccccc1)N(C)C(=O)N2C (stereo not shown) [Example 3, 6-(3,5-Dimethyl-isoxazol-4-yl)-1,3-dimethyl-4-phenyl-3,4-dihydro-1H-quinazolin-2-one] | 66 |
| Cc1noc(C)c1-c1ccc2c(c1)C(c1ccccc1)N(CC1CCN(C)CC1)C(=O)N2 (stereo not shown) [Example 4, 6-(3,5-Dimethyl-isoxazol-4-yl)-3-(1-methyl-piperidin-4-ylmethyl)-4-phenyl-3,4-dihydro-1H-quinazolin-2-one] | 31 |
| Cc1noc(C)c1-c1ccc2c(c1)C(c1ccccc1)N(CC1CCOCC1)C(=O)N2 (stereo not shown) [Example 5, 6-(3,5-Dimethylisoxazol-4-yl)-4-phenyl-3-(tetrahydropyran-4-ylmethyl)-1,4-dihydroquinazolin-2-one] | 38 |
| Cc1noc(C)c1-c1ccc2c(c1)C(c1ccccc1)N(Cc1ccccc1)C(=O)N2 (stereo not shown) [Example 6, 3-Benzyl-6-(3,5-dimethylisoxazol-4-yl)-4-phenyl-1,4-dihydroquinazolin-2-one] | 225 |
| Cc1noc(C)c1-c1ccc2c(c1)C(c1ccc(Cl)cc1)N(C)C(=O)N2 (stereo not shown) [Example 7, 4-(4-Chloro-phenyl)-6-(3,5-dimethyl-isoxazol-4-yl)-3-methyl-3,4-dihydro-1H-quinazolin-2-one] | 105 |
| Cc1noc(C)c1-c1ccc2c(c1)C(c1ccccc1)N(C)C(=O)O2 (stereo not shown) [Example 8, 6-(3,5-Dimethyl-isoxazol-4-yl)-3-methyl-4-phenyl-3,4-dihydro-benzo[e][1,3]oxazin-2-one] | 75 |
| Cc1noc(C)c1-c1ccc2c(c1)[C@H](c1ccccc1)N(C)C(=O)O2 [Example 9, (S) 6-(3,5-Dimethyl-isoxazol-4-yl)-3-methyl-4-phenyl-3,4-dihydro-benzo[e][1,3]oxazin-2-one] | 68 |
| Cc1noc(C)c1-c1ccc2c(c1)C(c1ccccc1)OC(=O)N2 (stereo not shown) [Example 10, 6-(3,5-Dimethyl-isoxazol-4-yl)-4-phenyl-1,4-dihydro-benzo[d][1,3]oxazin-2-one] | 423 |
| COc1ccc(CN2C(=O)Oc3ccc(-c4c(C)noc4C)cc3C2c2ccccc2)cc1 (stereo not shown) [Example 12, 6-(3,5-Dimethyl-isoxazol-4-yl)-3-(4-methoxy-benzyl)-4-phenyl-3,4-dihydro-benzo[e][1,3]oxazin-2-one] | 241 |
| Cc1noc(C)c1-c1ccc2c(c1)C(c1ccccn1)N(C)C(=O)N2 (stereo not shown) [Example 13, 6-(3,5-Dimethyl-isoxazol-4-yl)-3-methyl-4-pyridin-2-yl-3,4-dihydro-1H-quinazolin-2-one] | 119 |
| Cc1noc(C)c1-c1cc2c(cn1)NC(=O)N(C)C2c1ccccc1 (stereo not shown) [Example 15, 6-(3,5-Dimethyl-isoxazol-4-yl)-3-methyl-4-phenyl-3,4-dihydro-1H-pyrido[3,4-d]pyrimidin-2-one] | 837 |
| Cc1noc(C)c1-c1cc2c(cn1)NC(=O)N(C)[C@H]2c1ccccc1 [Example 16, (S) 6-(3,5-Dimethyl-isoxazol-4-yl)-3-methyl-4-phenyl-3,4-dihydro-1H-pyrido[3,4-d]pyrimidin-2-one] | 166 |
| Cc1noc(C)c1-c1ccc2c(n1)C(c1ccccc1)N(C)C(=O)N2 (stereo not shown) [Example 17, 6-(3,5-Dimethyl-isoxazol-4-yl)-3-methyl-4-phenyl-3,4-dihydro-1H-pyrido[3,2-d]pyrimidin-2-one] | 252 |
| Cc1noc(C)c1-c1cnc2c(c1)C(c1ccccc1)N(C)C(=O)N2 (stereo not shown) [Example 18, 6-(3,5-Dimethyl-isoxazol-4-yl)-3-methyl-4-phenyl-3,4-dihydro-1H-pyrido[2,3-]pyrimidin-2-one] | 76 |
| Cc1noc(C)c1-c1ccc2c(c1)C(C)(c1ccccc1)N(C)C(=O)N2 (stereo not shown) [Example 19, 6-(3,5-Dimethyl-isoxazol-4-yl)-3,4-dimethyl-4-phenyl-3,4-dihydro-1H-quinazolin-2-one] | 31 |
| COc1noc(C)c1-c1ccc2c(c1)C(c1ccccc1)N(C)C(=O)N2 (stereo not shown) [Example 20, 6-(3-Methoxy-5-methyl-isoxazol-4-yl)-3-methyl-4-phenyl-3,4-dihydro-1H-quinazolin-2-one] | 213 |
| COc1c(-c2c(C)noc2C)ccc2c1C(c1ccccc1)N(C)C(=O)N2 (stereo not shown) [Example 21, 6-(3,5-Dimethyl-isoxazol-4-yl)-5-methoxy-3-methyl-4-phenyl-3,4-dihydro-1H-quinazolin-2-one] | 825 |
